“Also recorded” adds a separate entry of the source.
What was measured:
[1] = tested on: KRAS-mutant lung cancer cell lines; test: Clonogenic assay; format: cell-based, human; settings: for sensitization to trametinib (MEK inhibition) in combination: combined with trametinib, KRAS-mutant lung cancer cell lines
Description: All experiments were performed at least three times. Representative experiments are shown.

[2] = tested on: BRAF and KRAS-mutant cancers of multiple lineages; settings: GDSC dataset; BRAF-mutant compared with KRAS-mutant tumor cells; cited from earlier work

O=C(Nc1ccc2[nH]nc(-c3ccncc3)c2c1)[C@@H]1CCN(CC(=O)N2CCN(c3ccc(-c4ncccn4)cc3)CC2)C1 [SCH772984]
effect of co-treatment on antiproliferative effects of Trametinib ([1]; co-treatment with Trametinib compared with Trametinib alone): enhances the antiproliferative effects of trametinib

AZD4547
sensitization to trametinib (MEK inhibition) in combination [1]: comparable effects; also recorded: confer sensitivity to MEK inhibition

CCN1CCN(c2ccc(Nc3cc(N(C)C(=O)Nc4c(Cl)c(OC)cc(OC)c4Cl)ncn3)cc2)CC1 [BGJ398]
sensitization to trametinib (MEK inhibition) in combination [1]: comparable effects; also recorded: confer sensitivity to MEK inhibition

O=C(NOC[C@H](O)CO)c1ccc(F)c(F)c1Nc1ccc(I)cc1F [PD0325901]
sensitivity to MEK inhibitor (IC50), BRAF-mutant versus KRAS-mutant tumor cells [2]: significantly more sensitive

COCC(=O)NC/C=C/c1ccc2ncnc(Nc3ccc(Oc4ccc(C)nc4)c(C)c3)c2c1 [CP724714]
synergy when combined with Trametinib ([1]; H23 cells, combined with Trametinib): no synergy

COc1cc(F)c(F)c(Nc2ccc(I)cc2F)c1NS(=O)(=O)C1(C[C@H](O)CO)CC1 [RDEA119]
sensitivity to MEK inhibitor (IC50), BRAF-mutant versus KRAS-mutant tumor cells [2]: significantly more sensitive

Reference: patent US10792284B2, “Synergistic cancer treatment” (Memorial Sloan Kettering Cancer Center, priority 2015, dated 2020)
